In this assay the test system is Plasmodium berghei. Kind of assay: Luciferase/luciferin-expressing antifolate-resistant parasites were used to infect a culture of HepG2 cells that were pre-incubated with compounds. Infected hepatocytes emit light due to the luciferase reaction. Assay results are presented as the percent inhibition of light emission compared to control. […]. Format: functional. To be noted: sporozoite; for IC90: read-out: LUCIFERASE INFECTION ASSAY - IC90.

[1] abbreviates: read-out: LUCIFERASE INFECTION ASSAY - IC50.

For `CCC1CCCCN1C(=O)CSC(=Nc1ccccc1F)C(C#N)c1nc2ccccc2s1` (stereo not drawn), the IC90 is 9.73 µM. Besides, the IC50 (HEPG2TOX_HILL_SLOPE 76.7, HEPG2TOX_R_SQUARED 0.475, PBLUC_HILL_SLOPE 22.7, PBLUC_R_SQUARED 0.0851, read-out: LUCIFERASE INFECTION ASSAY - IC50) was found to be 8.83 µM.

As for `O=C(NNC(=S)Nc1cccc(C(F)(F)F)c1)c1ccc(OC(F)(F)F)cc1`, the IC90 was over 7.8 µM. Under setting [1], the IC50 is over 7.8 µM.

With `Cc1ccc(Nc2nnc(SC(C)C(=O)NC(C)c3ccc(F)cc3)s2)cc1` (stereo not drawn), the IC90 was over 10 µM. The IC50 (PBLUC_HILL_SLOPE 2.15, PBLUC_R_SQUARED 0.495, read-out: LUCIFERASE INFECTION ASSAY - IC50) turned out to be 4.9 µM.

`CCCn1c(N)c(C(=O)CSc2nnc(-c3ccccc3)c(-c3ccccc3)n2)c(=O)n(C)c1=O`: the IC90 was over 10 µM. In addition, the IC50 under setting [1] was over 10 µM.

Regarding `COc1ccccc1C(=O)N(c1ccc(F)cc1)c1nc2ccccc2s1`, the IC90 is over 10 µM. For the same compound, the IC50 under setting [1] is over 10 µM.

On to `Cc1ccc(/N=C2\SCC(C)N2C(=O)c2ccccc2SCC(=O)NCC2CCCCC2)c(C)c1` (stereo not drawn), for which the IC90 was over 10 µM. For the same compound, the IC50 (FFLUC_HILL_SLOPE 15, FFLUC_R_SQUARED 0.0481, HEPG2TOX_HILL_SLOPE 2.13, HEPG2TOX_R_SQUARED 0.879, PBLUC_HILL_SLOPE 4.29, PBLUC_R_SQUARED 0.235, read-out: LUCIFERASE INFECTION ASSAY - IC50) came to 8.13 µM.

`CC(=O)C1=NN(c2ccccc2)C(c2ccccc2OCc2ccccc2)N1c1ccc(N2CCOCC2)cc1` (stereo not drawn): the concentration for an effect of 90% (IC90) was over 10 µM. In addition, the half-inhibitory concentration (IC50) (FFLUC_HILL_SLOPE 2.34, FFLUC_R_SQUARED 0.456, PBLUC_HILL_SLOPE 2.53, PBLUC_R_SQUARED 0.447, read-out: LUCIFERASE INFECTION ASSAY - IC50) turned out to be 9.41 µM.

For the compound `CCOc1ccc(OCC)c(NC(=O)/C=C/c2c(C)nn(-c3ccccc3)c2C)c1`, the IC90 was over 10 µM. The half-inhibitory concentration (IC50) under setting [1] came to 9.19 µM.

For `NC(Cc1ccccc1)c1csc(Nc2ccc(C(=O)c3ccccc3)cc2)n1` (stereo not drawn), the IC90 turned out to be 1.15 µM. The IC50 (HEPG2TOX_HILL_SLOPE 7.62, HEPG2TOX_R_SQUARED 0.882, PBLUC_HILL_SLOPE 15.6, PBLUC_R_SQUARED 0.562, read-out: LUCIFERASE INFECTION ASSAY - IC50) came out at 1 µM.

`O=C1C=C(Nc2ccccc2)/C(=N\c2ccccc2)c2c1oc1ccc(Nc3ccccc3)cc21`: the IC90 was over 10 µM. For the setting “FFLUC_HILL_SLOPE 1.75, FFLUC_R_SQUARED 0.754, HEPG2TOX_HILL_SLOPE 1.61, HEPG2TOX_R_SQUARED 0.885, read-out: LUCIFERASE INFECTION ASSAY - IC50”, the half-maximal inhibitory concentration (IC50) was over 10 µM.

As to `COc1ccccc1C(=O)Nc1nonc1-c1ccc2c(c1)CCCC2`, the IC90 is over 9.45 µM. The IC50 (PBLUC_HILL_SLOPE 13.6, PBLUC_R_SQUARED 0.311, read-out: LUCIFERASE INFECTION ASSAY - IC50) amounted to 9.15 µM.

`CC(=O)Nc1ccccc1OS(=O)(=O)c1ccc(N2CCCC2=O)cc1`: the IC90 came to 1.38 µM. For the same compound, the IC50 (HEPG2TOX_HILL_SLOPE 1.61, HEPG2TOX_R_SQUARED 0.866, PBLUC_HILL_SLOPE 5.07, PBLUC_R_SQUARED 0.799, read-out: LUCIFERASE INFECTION ASSAY - IC50) was found to be 0.894 µM.

In the case of `CCOC(=O)C1=C(Nc2cccc(Cl)c2)S/C(=C\c2ccc(C)cc2)C1=O`, the IC90 was over 8.25 µM. Further, under setting [1], the IC50 is over 8.25 µM.

As for `O=S(=O)(c1ccc(C2=NNC(=NC3CC3)SC2)cc1)N1CCCCC1`, the IC90 was over 10 µM. In addition, the IC50 under setting [1] was over 10 µM.

Turning to `O=C(CN1CCNCC1)N1CCOCC1`, the IC90 was over 15.5 µM. Under setting [1], the IC50 was over 15.5 µM.

For the compound `CCn1c(NC(=O)Cc2c(Cl)cccc2Cl)nc2ccccc21`, the IC90 is 6.27 µM. Besides, the IC50 (PBLUC_HILL_SLOPE 118, PBLUC_R_SQUARED 0.0721, read-out: LUCIFERASE INFECTION ASSAY - IC50) turned out to be 6.16 µM.

Regarding `O=C(OCc1cc(=O)n2cc(Br)ccc2n1)C1(c2ccccc2)CC1`, the IC90 was over 10 µM. Further, the IC50 under setting [1] was over 10 µM.

As to `CC(C)(C)c1ccc(Oc2ccc(N)cc2)cc1`, the IC90 came to 4.63 µM. Moreover, the IC50 (PBLUC_HILL_SLOPE 1.38, PBLUC_R_SQUARED 0.811, read-out: LUCIFERASE INFECTION ASSAY - IC50) was found to be 0.942 µM.

As to `Cc1cc(NC(=O)CSc2ncc(-c3ccc(Cl)cc3)n2-c2ccccc2C)no1`, the IC90 was over 10 µM. For the same compound, under setting [1], the IC50 was 9.42 µM.

With `COC(=O)c1cc2c(N)c(C(=O)c3cc(C#N)c(SC)nc3C)sc2nc1C`, the IC90 was over 10 µM. Under setting [1], the IC50 was 5.83 µM.

In the case of `CC1(C)Cc2c(C#N)c(Nc3ccccc3)nc(NCCCO)c2CO1`, the IC90 is over 9.36 µM. Besides, the IC50 under setting [1] was over 9.36 µM.

Turning to `C#CCNS(=O)(=O)c1cccc(C(=O)Nc2nc(C)c(C)s2)c1`, the IC90 is over 10 µM. Also, under setting [1], the IC50 was over 10 µM.

Regarding `COc1cc(/C=N/Nc2ccc(C(F)(F)F)cn2)ccc1OS(=O)(=O)c1ccc(C)c([N+](=O)[O-])c1`, the IC90 was over 10 µM. For the same compound, under “FFLUC_HILL_SLOPE 3.31, FFLUC_R_SQUARED 0.75, read-out: LUCIFERASE INFECTION ASSAY - IC50”, the IC50 was over 10 µM.

With `FC(F)(F)Oc1cccc(-c2nc3ccnc(NCCc4ccccn4)c3[nH]2)c1`, the IC90 was found to be 7.15 µM. Also, the IC50 (HEPG2TOX_HILL_SLOPE 1.56, HEPG2TOX_R_SQUARED 0.653, PBLUC_HILL_SLOPE 2.89, PBLUC_R_SQUARED 0.498, read-out: LUCIFERASE INFECTION ASSAY - IC50) was 3.34 µM.

Turning to `O=C(c1c[nH]c2ccccc12)N1CCC(Cc2ccccc2)CC1`, the IC90 is over 10.4 µM. Under setting [1], the IC50 is over 10.4 µM.

Take `Cc1cccc(C)c1/N=c1\scc(-c2cccc(Cl)c2)n1/N=C/C1CC=CCC1` (stereo not drawn): the IC90 was over 10 µM. Besides, the IC50 under setting [1] was over 10 µM.

Turning to `O=C1/C(=C\c2ccccn2)N(Cc2ccccc2)S(=O)(=O)c2ccccc21`, the IC90 worked out at 5.19 µM. The IC50 under setting [1] was 2.87 µM.

Take `O=C(COc1ccc(F)cc1C(=O)c1cnn(-c2ccccc2)c1)Nc1ccc(Br)cc1F`: the IC90 was over 10 µM. For the same compound, the IC50 (HEPG2TOX_HILL_SLOPE 0.0675, HEPG2TOX_R_SQUARED 0.0289, PBLUC_HILL_SLOPE 1.95, PBLUC_R_SQUARED 0.148, read-out: LUCIFERASE INFECTION ASSAY - IC50) was over 10 µM.

For `C/C(=N\NC(=S)Nc1cccc(C(F)(F)F)c1)c1cc(Cl)ccc1O`, the IC90 was over 8.51 µM. For the same compound, under “HEPG2TOX_HILL_SLOPE 6.81, HEPG2TOX_R_SQUARED 0.836, PBLUC_HILL_SLOPE 11, PBLUC_R_SQUARED 0.0541, read-out: LUCIFERASE INFECTION ASSAY - IC50”, the half-inhibitory concentration (IC50) was 7.79 µM.

Turning to `CN(Cc1ccccc1N1CCCCC1)C(=O)c1ccc(NC(=O)C2CC2)s1`, the IC90 is over 10 µM. Further, the IC50 under setting [1] was over 10 µM.

Consider `Cc1noc(C)c1S(=O)(=O)N1CCCN(C(=O)c2cc3c(s2)-c2ccccc2CC3)CC1`, for which the IC90 is over 10 µM. Also, the half-maximal inhibitory concentration (IC50) (PBLUC_HILL_SLOPE 2.04, PBLUC_R_SQUARED 0.622, read-out: LUCIFERASE INFECTION ASSAY - IC50) was determined as 4.56 µM.

On to `CCCNC(=O)c1c(NC(=O)c2ccccc2)nc2ccc(C)cn12`, for which the IC90 was 7.77 µM. Moreover, the IC50 (HEPG2TOX_HILL_SLOPE 1.15, HEPG2TOX_R_SQUARED 0.736, PBLUC_HILL_SLOPE 3.57, PBLUC_R_SQUARED 0.289, read-out: LUCIFERASE INFECTION ASSAY - IC50) was determined as 4.2 µM.

For the compound `Fc1ccc(NC(=S)NN=C2c3ccccc3-c3ccccc32)c(F)c1`, the IC90 is over 10 µM. Besides, the IC50 under setting [1] is over 10 µM.

Consider `CC(C)n1ncc2c(C(=O)Nc3sccc3C#N)cc(C3CC3)nc21`, for which the 90% effect concentration (IC90) was over 10 µM. The IC50 (FFLUC_HILL_SLOPE 1.6, FFLUC_R_SQUARED 0.58, HEPG2TOX_HILL_SLOPE 1.47, HEPG2TOX_R_SQUARED 0.871, PBLUC_HILL_SLOPE 3.01, PBLUC_R_SQUARED 0.133, read-out: LUCIFERASE INFECTION ASSAY - IC50) was 5.55 µM.

Take `CCCCn1c(N)c(-c2nc(CC(C)(C)C)c(C(=O)c3ccc(Br)s3)s2)c(=O)n(C)c1=O`: the IC90 is over 10 µM. Moreover, the IC50 (PBLUC_HILL_SLOPE 0.7, PBLUC_R_SQUARED 0.683, read-out: LUCIFERASE INFECTION ASSAY - IC50) worked out at 2.73 µM.

For the compound `N#CC(C#N)=NNc1cc(F)c(Br)cc1F`, the concentration for an effect of 90% (IC90) was 4.79 µM. Also, for the setting “PBLUC_HILL_SLOPE 13.7, PBLUC_R_SQUARED 0.287, read-out: LUCIFERASE INFECTION ASSAY - IC50”, the IC50 was 4.08 µM.

Turning to `O=C(Nc1ccc(-c2nc3ccccc3[nH]2)cc1)c1cccc(S(=O)(=O)NC2CC2)c1`, the IC90 was 3 µM. Also, where the note is “HEPG2TOX_HILL_SLOPE 2.58, HEPG2TOX_R_SQUARED 0.64, PBLUC_HILL_SLOPE 5.30, 5.83, PBLUC_R_SQUARED 0.508, 0.438, read-out: LUCIFERASE INFECTION ASSAY - IC50”, the IC50 came to 2.03 µM.

`CCc1cccc2c(C3=CCN(c4ccc([N+](=O)[O-])cn4)CC3)c[nH]c12`: the IC90 is over 10 µM. Also, the IC50 (HEPG2TOX_HILL_SLOPE 2.16, 2.30, HEPG2TOX_R_SQUARED 0.931, 0.732, PBLUC_HILL_SLOPE 2.67, 4.10, PBLUC_R_SQUARED 0.259, 0.404, read-out: LUCIFERASE INFECTION ASSAY - IC50) was 5.92 µM.

On to `O=C(CSc1ccccc1)Nc1nc2ccccn2c1C(=O)NC1CCCC1`, for which the IC90 is over 8.37 µM. Moreover, the IC50 (PBLUC_HILL_SLOPE 8.28, PBLUC_R_SQUARED 0.442, read-out: LUCIFERASE INFECTION ASSAY - IC50) came to 7.37 µM.

For orientation: IC50 means the point on the concentration scale where inhibition reaches its midpoint. As usually defined, the IC90 is the concentration needed for an effect of 90%.
